The values below come from US20250243188A1, “METHIONINE ADENOSYLTRANSERASE 2A INHIBITORS” (IDEAYA BIOSCIENCES, INC., priority 2022, published 2025).

Bounds are passed on as bounds.

Human MAT2A, sequence (P31153 whole entry): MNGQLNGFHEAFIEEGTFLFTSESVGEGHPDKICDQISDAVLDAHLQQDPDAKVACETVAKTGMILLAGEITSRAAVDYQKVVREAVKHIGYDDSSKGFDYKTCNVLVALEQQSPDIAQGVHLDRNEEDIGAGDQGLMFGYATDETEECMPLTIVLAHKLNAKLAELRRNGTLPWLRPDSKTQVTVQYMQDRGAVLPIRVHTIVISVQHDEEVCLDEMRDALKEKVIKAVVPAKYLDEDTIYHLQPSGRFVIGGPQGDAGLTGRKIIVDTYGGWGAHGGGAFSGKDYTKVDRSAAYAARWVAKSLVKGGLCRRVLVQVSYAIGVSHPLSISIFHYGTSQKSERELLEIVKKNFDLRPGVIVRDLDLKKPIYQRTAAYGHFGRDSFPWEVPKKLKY

For the assay, the target named is Human MAT2A (Homo sapiens (Human), UniProt P31153). Briefly: Phosphate Sensor Fluorescence Assay (MAT2A enzyme inhibition). The class given is biochemical. To be noted: MAT2A (1-395) 5.8 nM, 500 uM L-methionine, 500 uM ATP. As to the method:
The ability of the compound of present disclosure to inhibit MAT2A enzyme was determined using a Phosphate Sensor Fluorescence Assay described below.
MAT2A enzyme is incubated with a test compound in DMSO or DMSO and its substrates (L-methionine and ATP) in a microtiter plate. The enzymatic reaction is stopped by the addition of Working Phosphate Sensor Mixture. The plate is analyzed for fluorescence at 450 nm. The high control (DMSO with enzyme and its substrates) gives high fluorescence which represents no inhibition of enzymatic activity while the low control (DMSO with MAT2A substrates and no enzyme) gives low fluorescence which represents full inhibition of enzymatic activity.
• Human MAT2A: Cepter, amino acids 1-395 (Clone ID 334, lot 00023-148) • Tris, pH 7.5: Invitrogen cat #15567-027 • KCl: Ambion cat #AM9640G • MgCl2: Ambion cat #AM9530G • Brij-35: Sigma cat B4184-10ML • DTT: Goldbio cat #DTT100 • BGG: Sigma cat #G5009-25G • PNP: Novus Biologicals cat #NBP1-50872 • 7-MEG: Cayman Chemical cat #15988 • L-Methionine: JTBaker P/N 2085-05 • ATP: Promega P/N V915B • Phosphate Sensor: Thermo Fisher cat #PV4407 • EDTA: Invitrogen cat #15575-038 • Assay plate: 384-well black polypropylene plate: Corning P/N 3573
• Assay Buffer: 50 mM Tris, pH 7.5/50 mM KCl/10 mM MgCl2/0.01% Brij-35/1 mM DTT/0.01% BGG/40 nM PNP/6 uM 7-MEG • MAT2A: 5.8 nM MAT2A (1-395), Cepter, clone ID 334, lot 00023-148 before the addition of Working Phosphate Sensor Mixture • L-methionine: 500 uM before the addition of Working Phosphate Sensor Mixture • ATP: 500 uM before the addition of Working Phosphate Sensor Mixture
For the assay, a mixture of 1 mM L-methionine/1 mM ATP (2× final pre-stopped concentration) in assay buffer; MAT2A (2× final pre-stopped concentration) in Assay Buffer and Working Phosphate Sensor Mixture (1.5 uM Phosphate Sensor/30 mM EDTA in Assay Buffer, which is 3× final concentrations) were prepared. Test compounds or DMSO were added to the appropriate well using a Beckman Coulter Echo 550 acoustic liquid handler. 10 μl/well of Assay Buffer was added to the wells corresponding to the negative control and 10 μl/well of MAT2A was added to all the wells except for those corresponding to the negative control. After incubating the plate at room temperature for 15 minutes, 10 μl/well of the 1 mM L-methionine/1 mM ATP mixture was added to all wells. The plate was centrifuged at 1000 rpm for 1 minute and then incubated at room temperature for 1 hour. 10 μl of the Working Phosphate Sensor Mixture was added to all wells and the plate was centrifuged at 1000 rpm for 1 minute. The plate was read for fluorescence at 450 nm after exciting at 430 nm on a Tecan Spark microplate reader.
Percent inhibition was calculated in Chemical and Biological Information System (CBIS), (ChemInnovation Software Inc.). Curves were fitted by CBIS as % inhibition vs. log [compound concentration] using a 4-parameter inhibition model.
Compound `O=C(Nc1cccc(-n2c(=O)[nH]c(=O)c3ccc(Cl)cc32)c1)c1cccc(-n2c(=O)[nH]c(=O)c3ccc(Cl)cc32)c1` [Example 7, 3-(7-Chloro-2,4-dioxo-3,4-dihydroquinazolin-1(2H)-yl)-N-(3-(7-chloro-2,4-dioxo-3,4-dihydroquinazolin-1(2H)-yl)phenyl)benzamide] had an IC50 of less than 200 nM.

The compound `CN(C)c1nc(=O)n(-c2cccc(NC(=O)c3csc(-n4c(=O)nc(N(C)C)c5ccc(C(F)(F)F)cc54)c3)c2)c2cc(C(F)(F)F)ccc12` [Example 6, 5-(4-(Dimethylamino)-2-oxo-7-(trifluoromethyl)quinazolin-1(2H)-yl)-N-(3-(4-(dimethylamino)-2-oxo-7-(trifluoromethyl)quinazolin-1(2H)-yl)phenyl)thiophene-3-carboxamide] gave a half-inhibitory concentration (IC50) of less than 200 nM.

On to `Cn1c(-n2c(=O)[nH]c(=O)c3ccc(Cl)cc32)cnc1C(=O)Nc1cccc(-n2c(=O)[nH]c(=O)c3ccc(Cl)cc32)c1` [Example 9, 5-(7-Chloro-2,4-dioxo-3,4-dihydroquinazolin-1(2H)-yl)-N-(3-(7-chloro-2,4-dioxo-3,4-dihydroquinazolin-1(2H)-yl)phenyl)-1-methyl-1H-imidazole-2-carboxamide], for which the half-maximal inhibitory concentration (IC50) is less than 200 nM. Compound `CN(C)c1nc(=O)n(-c2cccc(NC(=O)c3csc(-n4c(=O)nc(N(C)C)c5ccc(Cl)cc54)c3)c2)c2cc(Cl)ccc12` [Example 1, 5-(7-Chloro-4-(dimethylamino)-2-oxoquinazolin-1(2H)-yl)-N-(3-(7-chloro-4-(dimethylamino)-2-oxoquinazolin-1(2H)-yl)phenyl)thiophene-3-carboxamide] registered an IC50 of less than 200 nM.

As for `O=C(Nc1cccc(-n2c(=O)[nH]c(=O)c3ccc(C(F)(F)F)cc32)c1)c1csc(-n2c(=O)[nH]c(=O)c3ccc(C(F)(F)F)cc32)c1` [Example 5, 5-(2,4-Dioxo-7-(trifluoromethyl)-3,4-dihydroquinazolin-1(2H)-yl)-N-(3-(2,4-dioxo-7-(trifluoromethyl)-3,4-dihydroquinazolin-1(2H)-yl)phenyl)thiophene-3-carboxamide], the IC50 is less than 200 nM. Take `CN(C)c1nc(=O)n(-c2cccc(OCc3csc(-n4c(=O)nc(N(C)C)c5ccc(Cl)cc54)c3)c2)c2cc(Cl)ccc12` [Example 12, 7-Chloro-1-(4-((3-(7-chloro-4-(dimethylamino)-2-oxoquinazolin-1(2H)-yl)phenoxy)methyl)thiophen-2-yl)-4-(dimethylamino)quinazolin-2(1H)-one]: the 50% inhibitory concentration (IC50) is less than 200 nM. As to `O=C(Nc1cccc(-n2c(=O)[nH]c(=O)c3ccc(Cl)cc32)c1)c1csc(-n2c(=O)[nH]c(=O)c3ccc(Cl)cc32)c1` [Example 2, 5-(7-Chloro-2,4-dioxo-3,4-dihydroquinazolin-1(2H)-yl)-N-(3-(7-chloro-2,4-dioxo-3,4-dihydroquinazolin-1(2H)-yl)phenyl)thiophene-3-carboxamide], the IC50 is less than 200 nM. For `CN(C)c1nc(=O)n(-c2cccc(NC(=O)c3cc(-n4c(=O)nc(N(C)C)c5ccc(Br)cc54)n(C)n3)c2F)c2cc(Cl)ccc12` [Example 10, 5-(7-Bromo-4-(dimethylamino)-2-oxoquinazolin-1(2H)-yl)-N-(3-(7-chloro-4-(dimethylamino)-2-oxoquinazolin-1(2H)-yl)-2-fluorophenyl)-1-methyl-1H-pyrazole-3-carboxamide], the half-maximal inhibitory concentration (IC50) was less than 200 nM. `CN(C)c1nc(=O)n(-c2cccc(NCc3csc(-n4c(=O)nc(N(C)C)c5ccc(Cl)cc54)c3)c2)c2cc(Cl)ccc12` [Example 11, 7-Chloro-1-(4-(((3-(7-chloro-4-(dimethylamino)-2-oxoquinazolin-1(2H)-yl)phenyl)amino)methyl)thiophen-2-yl)-4-(dimethylamino)quinazolin-2(1H)-one] yielded an IC50 of less than 200 nM. `CN(C)c1nc(=O)n(-c2cccc(NC(=O)c3cnc(-n4c(=O)nc(N(C)C)c5ccc(Cl)cc54)s3)c2)c2cc(Cl)ccc12` [Example 8, 2-(7-Chloro-4-(dimethylamino)-2-oxoquinazolin-1(2H)-yl)-N-(3-(7-chloro-4-(dimethylamino)-2-oxoquinazolin-1(2H)-yl)phenyl)thiazole-5-carboxamide] registered an IC50 of less than 200 nM. To `Cc1c(C(=O)Nc2cccc(-n3c(=O)nc(N(C)C)c4ccc(Cl)cc43)c2)csc1-n1c(=O)nc(N(C)C)c2ccc(Cl)cc21` [Example 3, 5-(7-Chloro-4-(dimethylamino)-2-oxoquinazolin-1(2H)-yl)-N-(3-(7-chloro-4-(dimethylamino)-2-oxoquinazolin-1(2H)-yl)phenyl)-4-methylthiophene-3-carboxamide] belongs less than 200 nM; to `CN(C)c1nc(=O)n(-c2cccc(NC(=O)c3ncc(-n4c(=O)nc(N(C)C)c5ccc(Cl)cc54)n3C)c2)c2cc(Cl)ccc12` [Example 4, 5-(7-Chloro-4-(dimethylamino)-2-oxoquinazolin-1(2H)-yl)-N-(3-(7-chloro-4-(dimethylamino)-2-oxoquinazolin-1(2H)-yl)phenyl)-1-methyl-1H-imidazole-2-carboxamide], less than 200 nM.

Broadly, the IC50 is the midpoint of a concentration-inhibition curve. Lower therefore signals greater potency in that assay.
